Read-outs that look alike come from different tables or passages of the source.
Assays:
[1] = tested on: maximal electroshock-induced seizures; assay: Maximal electroshock-induced seizure (MES) test in mice; type: in vivo, mouse; settings: for responders at 300 mg/kg / ED50: Mus musculus, ip; for responders at 300 mg/kg: read-out: percent of animals protected against MES-induced seizures; for anticonvulsant activity (in words): MES test; for ED50: read-out: ED50 ± S.E. (MES test); for PI (TD50/ED50): protective index; for onset of action: significant protection as early as 15 min after parenteral administration
Experimental: Additionally, all efforts were made to minimize animal suffering and to use only the number of animals necessary to produce reliable scientific data.
In the initial stage of the study, groups of eight mice were supplied with the compounds (administered intraperitoneally) in a dose of 300 mg/kg and then exposed to electrical impulse at fixed intervals (15, 30, 60, 120 min).
Each mouse was used only once.
Fresh drug solutions were prepared on each day of experimentation and administered at 15, 30, 60 and 120 min. before the initiation of maximal electroconvulsions. Electroconvulsions were produced by a current (0.2 s stimulus duration; 500 V, 50 Hz, fixed current intensity of 25 mA) delivered via ear-clip electrodes by a Rodent Shocker generator (constant-current stimulator Type 221, Hugo Sachs Elektronik, Freiburg, Germany). The criterion for the occurrence of seizure activity was the tonic hind limb extension. The animals were administered with a constant dose of 300 mg/kg of each of the examined compounds and were subjected to MES-induced seizures. […] The animals were administered with different doses of the tested compounds so as to obtain a variable percentage of protection against maximal electroconvulsions, allowing the construction of dose-response relationship lines for each examined compound administered i.p. at various pretreatment times, according to Litchfield and Wilcoxon. Each ED50 value represents the dose of the studied compounds that is required to protect 50% of the animals tested against MES-induced seizures.

[2] = 300 mg/kg i.p., pretreatment time 15 min, mice
[3] = 300 mg/kg i.p., pretreatment time 30 min, mice
[4] = 300 mg/kg i.p., pretreatment time 60 min, mice
[5] = 300 mg/kg i.p., pretreatment time 120 min, mice
[6] = 0.25 h, 300 mg/kg i.p., pretreatment time 15 min, mice
[7] = 0.5 h, 300 mg/kg i.p., pretreatment time 30 min, mice
[8] = 1 h, 300 mg/kg i.p., pretreatment time 60 min, mice
[9] = 2 h, 300 mg/kg i.p., pretreatment time 120 min, mice
[10] = pretreatment time 120 min, mice
[11] = chimney TD50 / MES ED50, pretreatment time 15 min
[12] = chimney TD50 / MES ED50, pretreatment time 30 min

melting point [°C] | Compound | p/t, number of animals protected against MES-induced seizures / number tested [1, 2] | p/t, number of animals protected against MES-induced seizures / number tested [1, 3] | p/t, number of animals protected against MES-induced seizures / number tested [1, 4] | p/t, number of animals protected against MES-induced seizures / number tested [1, 5] | responders at 300 mg/kg [1, 6] [%] | responders at 300 mg/kg [1, 7] [%] | responders at 300 mg/kg [1, 8] [%] | responders at 300 mg/kg [1, 9] [%] | anticonvulsant activity (in words) ([1]; mice) | ED50 ([1]; pretreatment time 15 min, mice) [mg/kg] | ED50 ([1]; pretreatment time 30 min, mice) [mg/kg] | ED50 ([1]; pretreatment time 60 min, mice) [mg/kg] | ED50 [1, 10] [mg/kg] | PI (TD50/ED50) [1, 11] | PI (TD50/ED50) [1, 12] | onset of action ([1]; MES, mice) | other results
221 to 222 | Fc1cccc(-n2c(-c3cccc(Cl)c3)n[nH]c2=S)c1 [Compound 2a, 5-(3-Chlorophenyl)-4-(3-fluorophenyl)-2,4-dihydro-3H-1,2,4-triazole-3-thione] | 0/8 | 0/8 | 0/8 | 0/8 | 0 | 0 | 0 | 0 |  |  |  |  |  |  |  |  | 
 | Fc1ccc(-n2c(-c3cccc(Cl)c3)n[nH]c2=S)cc1 [Compound 3a, 5-(3-Chlorophenyl)-4-(4-fluorophenyl)-2,4-dihydro-3H-1,2,4-triazole-3-thione] |  |  |  |  |  |  |  |  | most potent activity | 35.2 ± 5.3 | 93.6 ± 9.4 | > 200 | > 200 | 3.9 | 1.6 | quick onset of action | acute adverse effects at the screening dose ([1]; 300 mg/kg i.p., mice, protective effect in MES could not be established): acute adverse effects; time to peak of the anticonvulsant action ([1]; after i.p. administration, MES, mice): 15 min; anticonvulsant activity at decreased doses ([1]; doses lowered to those not inducing neurotoxic effects, MES, mice): retained its anticonvulsant activity; anticonvulsant activity relative to valproate ([1]; from ED50 values, MES): approximately five and a half times higher than that of valproate
 | S=c1[nH]nc(-c2cccc(Cl)c2)n1-c1ccc(Cl)cc1 [Compound 4a, 4-(4-Chlorophenyl)-5-(3-chlorophenyl)-2,4-dihydro-3H-1,2,4-triazole-3-thione] | 8/8 | 8/8 | 7/8 | 7/8 | 100 | 100 | 87.5 | 87.5 |  | 90.1 ± 15.7 | 135 ± 19.8 | 171 ± 21.4 | 184 ± 28 | 3.9 | 2.7 | quick onset of action | PI (TD50/ED50) ([1]; chimney TD50 / MES ED50, pretreatment time 60 min): 2.1; PI (TD50/ED50) ([1]; chimney TD50 / MES ED50, pretreatment time 120 min): 2.0
 | S=c1[nH]nc(-c2cccc(Cl)c2)n1-c1ccc(I)cc1 [Compound 7a, 5-(3-Chlorophenyl)-4-(4-iodophenyl)-2,4-dihydro-3H-1,2,4-triazole-3-thione] | 0/8 | 0/8 | 0/8 | 0/8 | 0 | 0 | 0 | 0 | inactive |  |  |  |  |  |  |  | 
186 to 188 | Cc1ccccc1-n1c(-c2cccc(Cl)c2)n[nH]c1=S [Compound 8a, 5-(3-Chlorophenyl)-4-(2-methylphenyl)-2,4-dihydro-3H-1,2,4-triazole-3-thione] | 0/8 | 0/8 | 0/8 | 0/8 | 0 | 0 | 0 | 0 |  |  |  |  |  |  |  |  | 
200 to 201 | Cc1cccc(-n2c(-c3cccc(Cl)c3)n[nH]c2=S)c1 [Compound 9a, 5-(3-Chlorophenyl)-4-(3-methylphenyl)-2,4-dihydro-3H-1,2,4-triazole-3-thione] | 0/8 | 0/8 | 0/8 | 1/8 | 0 | 0 | 0 | 12.5 |  |  |  |  |  |  |  |  | 

— paper PMC6271529, “Studies on the Anticonvulsant Activity and Influence on GABA-ergic Neurotransmission of 1,2,4-Triazole-3-thione-Based Compounds” (Molecules, 2014)
